Data published in patent publication US20210353564A1, “TREATMENTS FOR ZIKA VIRUS INFECTION” (Saint Louis University, priority 2018, published 2021).
Where a name gives a salt, the structure may show the parent alone.

How the values were obtained:
[1] = tested on: Zika virus; experiment: Focus Forming Assay, Vero cells drugged at T-1, T0, T1, T8, T12 relative to addition of virus; type: cell-based; settings: for change of EC50 with time of compound addition: addition T-1 to T12 relative to virus; for effect on Zika virus replication (focus count): remaining virus after 39 hours
Method: FIGS. 3-14. Focus Forming Assay. Data represent Vero cells drugged with SERM compounds an hour before addition of virus (T-1), upon addition of virus (T0), one hour after addition of virus (T1), eight hours after addition of virus (T8), and twelve hours after addition of virus. Each compound was screened as triplicate measurements and performed in duplicate. The data is shown as focus count (normalized to the control wells) which represents the amount of remaining virus after 39 hours as a function of log concentration.

[2] = tested on: ZIKV strain PRVABC59; experiment: focus reduction test of ZIKV on Vero cells; settings: focus reduction test (FIG. 1B)
Description: Average+/−StdDev from three independent experiments done in duplicate.

[3] = after two years, only tamoxifen; cited from earlier work
[4] = tested on: HCV; settings: cited from earlier work
[5] = tested on: ERa-mediated gene transcription; settings: cited from earlier work
[6] = target: T1, ERa (Homo sapiens, UniProt P03372); settings: cited from earlier work
T1 sequence (P03372 1-595): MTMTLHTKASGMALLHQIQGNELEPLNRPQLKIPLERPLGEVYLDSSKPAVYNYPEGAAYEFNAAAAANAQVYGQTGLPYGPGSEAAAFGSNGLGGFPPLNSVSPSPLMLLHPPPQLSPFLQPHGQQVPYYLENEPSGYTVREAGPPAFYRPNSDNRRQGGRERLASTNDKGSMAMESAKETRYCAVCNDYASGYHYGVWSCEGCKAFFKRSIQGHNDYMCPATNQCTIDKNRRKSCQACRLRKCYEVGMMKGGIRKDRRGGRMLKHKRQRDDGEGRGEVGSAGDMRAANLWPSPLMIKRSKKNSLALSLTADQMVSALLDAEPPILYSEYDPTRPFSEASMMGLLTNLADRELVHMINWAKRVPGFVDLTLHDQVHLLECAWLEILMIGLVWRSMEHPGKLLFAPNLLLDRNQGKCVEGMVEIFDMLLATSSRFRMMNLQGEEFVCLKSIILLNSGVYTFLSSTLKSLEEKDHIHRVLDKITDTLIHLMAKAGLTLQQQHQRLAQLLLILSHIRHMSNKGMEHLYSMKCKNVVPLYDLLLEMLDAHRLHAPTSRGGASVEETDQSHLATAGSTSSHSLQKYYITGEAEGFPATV

[7] = tested on: Ca2+-mediated cytotoxicity and apoptosis; settings: cited from earlier work
[8] = average 4-year follow-up; difference not statistically significant; cited from earlier work
[9] = tested on: calmodulin-activated PDE; settings: cited from earlier work

Compound | change of EC50 with time of compound addition [1] | effect on Zika virus replication (focus count) [1] | also measured
CC/C(=C(\c1ccccc1)c1ccc(OCCN(C)C)cc1)c1ccccc1 [Tamoxifen citrate] | EC50 increases from T1 to T8 | prevents viral replication | –
C[C@H]1CCCC(=O)CCCCCc2cc(O)cc(O)c2C(=O)O1 [Zearalanone] | – | no effect | –
COc1cc2c(cc1OC)CN(CCc1ccc(NC(=O)c3cc(OC)c(OC)cc3NC(=O)c3cnc4ccccc4c3)cc1)CC2 [Tariquidar] | EC50 does not change substantially from T-1 to T12 | prevents viral replication | –
CC/C(=C(\c1ccccc1)c1ccc(OCCN(C)C)cc1)c1ccccc1 [TAM, Tamoxifen] | – | – | antiviral activity against ZIKV grown in Vero cells [2]: antiviral activity; women with a recurrence [3]: 7.5%; effect on HCV genome replication [4]: able to inhibit HCV genome replication; toxicity in the HCV replication study [4]: without any apparent toxicity
Methylpiperidinopyrazole [MPP] | – | – | selectivity for blocking ERa-mediated gene transcription relative to that of ERβ [5]: 1000 fold; selectivity for ERa over ERβ [6]: 200 fold
VAITVLVK [CALP-1] | – | increase viral growth during some of the assays | IC50 [7]: 52 µM
Oc1ccc([C@H]2COc3cc(O)ccc3C2)cc1 [(S)-Equol, (S)-equol] | EC50 increases from T8 to T12 | diminishes viral replication | –
O=C(c1ccc(OCCN2CCCCC2)cc1)c1c(-c2ccc(O)cc2)sc2cc(O)ccc12 [raloxifene] | – | – | fewer blood clots than in women taking tamoxifen [8]: 29%; fewer uterine cancers than in women taking tamoxifen [8]: 36%
Cl.NCCCCCCCCCCNS(=O)(=O)c1cccc2c(Cl)cccc12 [A-7] | EC50 increases from T1 to T8 | prevents viral replication | effect on Zika virus replication (focus count) ([1]; listed as A-7 Hydrochloride): impedes viral replication; IC50 [9]: 3 µM
C[C@]12CC[C@@H]3c4ccc(O)cc4C[C@@H](CCCCCCCCC[S+]([O-])CCCC(F)(F)C(F)(F)F)[C@H]3[C@@H]1CC[C@@H]2O (stereo partly drawn) [ICI182780] | – | – | effect on HCV genome replication [4]: able to inhibit HCV genome replication; toxicity in the HCV replication study [4]: without any apparent toxicity
O=c1c(-c2ccc(O)cc2)coc2cc(O)cc(O)c12 [Genistein] | – | no effect | –
CCCCCCCCCCCCCC(=O)O[C@@H]1[C@@H](C)[C@@]2(O)[C@@H](C=C(CO)C[C@]3(O)C(=O)C(C)=C[C@@H]23)[C@@H]2C(C)(C)[C@]12OC(C)=O [PMA, phorbol-12-myristate-13-acetate] | EC50 increases from T8 to T12 | diminishes viral replication | –
O=c1c(-c2ccc(O)cc2)coc2cc(O)ccc12 [Daidzein] | – | no effect | –
